Test results reported in patent publication US6531645B1, “RAS/P21 transgenic mouse” (University of South Florida, priority 2000, dated 2003).

Tested on: mammary tumors of MMTV/v-Ha-ras/p21WAF1 (−/−) transgenic mice
Assay: Antitumor efficacy of FTI-2148 in MMTV/v-Ha-ras/p21WAF1 (−/−) transgenic mice
Type: in vivo, mouse
Settings: 50 mg/Kg/day by subcutaneous osmotic mini-pump
Procedure: The MMTV/v-Ha-Ras/p21waf(−/−) transgenic mice are generated as described herein. When the three mammary tumors reach 4500 mm^3, 2000 mm^3 and 900 mm^3 (see FIG. 1), the mice are implanted subcutaneously with an osmotic mini-pump that delivers 50 mg/Kg/day of the farnesyltransferase inhibitor FTI-2148 that was designed to block oncogenic H-Ras malignant transformation. […] Thus, within 6 days of drug treatment one skilled in the art can determine whether a drug has antitumor activity.
Tumor Development Monitoring and Sample Collection. The female offspring are monitored weekly for tumors by observation and palpation. Tumor diameters are measured in three dimensions using calipers, and tumor volume is calculated as length x width x height. Samples of tumor and normal tissue are collected in 10% neutral buffered formalin for histopathologic analysis. All surgical and experimental procedures performed on the mice are in accordance the NIH guidelines outlined in the “Guide for Care and Use of Laboratory Animals” (NIH publication 85-23). Animals are autopsied immediately after sacrifice, and external as well as internal organs are grossly examined. Representative tissue samples are obtained from salivary glands, mammary glands, lungs, liver, kidneys, spleen, and Harderian (lacrimal) glands. For general microscopy, tissues are embedded in paraffin, and 3 μm-thick sections are cut and stained with hematoxylin and eosin. Tissues are also processed using either an avidin-biotin complex method or a labeled streptavidin-biotin method after antigen retrieval. […] Negative and positive controls include the omission of the primary antibody and normal or tumor tissues with known high marker expression. p21^WAF1/CIP1 expression is analyzed by immunohistochemistry with an anti-p21 antibody (sc-397-G, Santa Cruz Biotechnology). […]

CSCC[C@H](NC(=O)c1ccc(CNCc2cnc[nH]2)cc1-c1ccccc1C)C(=O)O [FTI-2148]
fate by day 15 of one of the three mammary tumors (day 15): one tumor disappears
tumor volume by day 15 of the two tumors that started out at 4500 mm^3 and 2000 mm^3 (day 15): less than 500 mm^3
time of treatment within which the tumors start to regress (three mammary tumors of 4500, 2000 and 900 mm^3 at start): ≤ 6 days
